Key:
[1] = test system: 8 mm ear punch wound; assay: Rabbit ear punch: rate of ear closure; format: in vivo; conditions: after day 4; phospholipid spray
Protocol: (§1) Compounds of Formula (I) were tested and compared to saline control in elastic cartilage regeneration tests. Rabbit ears were punched through and through with an 8 mm punch. 4 holes were punched in each ear of the specimen (four positions L1, L2, L3, and L4 in the left ear and four positions R5, R6, R7, and R8 in right ear). Saline was applied via a spray on the control specimen, Compound 8 was applied via a phospholipid spray on another specimen, and Compound 18 was applied via a phospholipid spray on yet another specimen. The phospholipid spray contained compound (45 mg), butylene glycol (2 mL), polysorbate 20 (2 mL), phosphotidyl choline (0.5 g), ethanol (2 mL), and ultra pure water (40 mL).
FIG. 4 provides photographs of the wounds after treatment with saline, compound 8, or compound 18 on Days 0 and 23. Ear punch area related to wound closure was measured at 2- to 3-day intervals from day 0 to day 39.

[2] = test system: elastic cartilage; assay: Elastic cartilage regeneration in rabbit ear punch wounds (stained cross sections, day 45); format: in vivo; conditions: for average distance between opposing cartilage endplates: original 8 mm wound margin, saline 6 mm; for average cartilage growth upon closure of the wound: saline 2 mm; for average cartilage tissue regrowth: saline about 25%; for cartilage regeneration by histology: versus control
Protocol: as §1
At day 45, the tests were stopped and the tissue was processed. An embed cut was made across the center point of the healed wounds in each site (FIG. 7, top). A slide was used to obtain sectioned tissue sample for staining and imaging (FIG. 7, bottom).
After staining with either Safronin O or Trichrome Blue, the distance between the opposing cartilage endplates was measured. From the original 8 mm wound margin distance, the saline control averaged 6 mm of distance between opposing cartilage endplates (FIG. 8), or 2 mm of average cartilage growth upon closure of the wound (about 25% average cartilage tissue regrowth). Compounds of Formula (I) (Compound 8 and Compound 18) provided about 2-3 mm average distance between opposing cartilage endplates (FIG. 8), or […] of average cartilage growth upon closure of the wound (about 68-75% average cartilage tissue regrowth).
FIGS. 9-11 display the original 8 mm wound margin (top, two vertical gray lines) and in an inset (bottom left, curved gray line). FIGS. 9-11 show expanded views of the cartilage regeneration site where chondrocytes are newly formed within the wound margin. Comparing FIG. 10 (Compound 8) and FIG. 11 (Compound 18) to FIG. 9 (control), cartilage regeneration using compounds of Formula (I) was confirmed.

[3] = test system: full thickness open excisional wounds; assay: Full thickness open excisional wound healing study; format: in vivo, Yucatan Miniature Swine; conditions: day 3 to day 22
Protocol: A 21-day full thickness open excisional wound healing study was conducted on Yucatan™ Miniature Swine (Sinclair BioResources, Auxvasse, Missouri, USA) to evaluate the efficacy of healing and local tissue reaction of compounds of Formula (I). Compounds and controls were topically administered on full thickness open excisional wounds once every other day (total 11 doses).
The negative control for this study was saline (0.9%). The tes compositions for these studies are described as follows.
The test composition in the full thickness open excisional wound studies for compounds without GO-HA (no GO-HA added) was a mixture with an overall concentration of 0.25 to 0.27 mg/mL of the respective compound in serum formulation as follows: compound (10 mg), butylene glycol (1.80 mL), polysorbate 20 (1.80 mL), phosphatidyl choline (0.44 g), ethanol (1.80 mL), ultra pure water (30 mL), and hydroxypropyl cellulose (0.285 g).
The test composition in the full thickness open excisional wounds studies for compounds with GO-HA (Compound+GO-HA) was a mixture with an overall concentration of 1.0 mg/mL of the respective compound and 1.0 mg/mL of GO-HA in serum formulation as follows: compound (35 mg), butylene glycol (1.8 mL), polysorbate 20 (1.8 mL), phosphotidyl choline (0.44 g), ethanol (1.8 mL), GO-HA (35 mg), ultra pure water (30 mL), and hydroxypropyl cellulose (0.285 g). […]

[4] = test system: Full-thickness, 3rd degree burn wounds; assay: 3rd degree burn wound healing study (60-day); format: in vivo, Yucatan minipig; conditions: for burn wound healing rate versus saline control: about day 16 to day 30; for burn wound histology (H&E) versus saline and GO-HA: improved organized reticular collagen and rete ridge formation
Protocol: The test composition in the closed excisional wound and burn studies for compounds without GO-HA (no GO-HA added) was a mixture with an overall concentration of 0.20 to 0.25 mg/mL of the respective compound in serum formulation as follows: compound (4 mg), butylene glycol (0.80 mL), polysorbate 20 (0.40 mL), ultra pure water (18 mL), and hydroxypropyl cellulose (0.12 g).
The test composition in the closed excisional wound and burn studies for compounds with GO-HA (Compound+GO-HA) was a mixture with an overall concentration of 1.0 mg/mL of the respective compound and 0.5 mg/mL of GO-HA in serum formulation as follows: compound (18 mg), PEG 400 (0.8 mL), GO-HA (9 mg), ultra pure water (18 mL), and hydroxypropyl cellulose (0.12 g).
Full-thickness 60-day burn wound healing study. Full-thickness, 3rd degree burn wounds of 3×3 cm^2 size were created on the back of the Yucatan minipig (5 wounds on each side of the spine, 10 total per swine) by using a brass cylinder (circular cross-section, 3 cm diameter) that was preheated in an oven at 100° C. and applied to the dorsal skin with light pressure for 30 seconds. Debridement of the wounds occurred day 7 post-dose. Compounds were dosed topically three times a week (0.24 mL) for thirty days. At 30 day time-point, the wounds were photographed once a week and NO dosing of compounds conducted from day 31-60. On day 60 animals were sacrificed and tissue prepared for analysis.

SMILES | rate of ear closure versus control [1] | average distance between opposing cartilage endplates [2] | average cartilage growth upon closure of the wound [2] | average cartilage tissue regrowth [2] | cartilage regeneration by histology [2] | wound healing throughout the entire test [3] | burn wound healing rate versus saline control [4] | burn wound histology (H&E) versus saline and GO-HA [4]
CC(C)(OCCO)c1ccc(-c2nc3c(c(=O)[nH]2)CSCC3)cc1 [Compound 8, 2-(4-(2-(2-hydroxyethoxy)propan-2-yl)phenyl)-3,5,7,8-tetrahydro-4H-thiopyrano[4,3-d]pyrimidin-4-one] | improved the rate of ear closure over the control | 2-3 mm | 5.5-6 mm | 68-75% | newly formed chondrocytes are more numerous and larger than in the control | improved wound healing throughout the entire test | statistically significant improved burn wound healing rates | promoted regeneration of tissue (improved organized reticular collagen and rete ridge formation) and reduced scar formation
COC(=O)NCCOC(C)(C)c1ccc(-c2nc3c(c(=O)[nH]2)CSCC3)cc1 [Compound 18, methyl (2-((2-(4-(4-oxo-3,5,7,8-tetrahydro-4H-thiopyrano[4,3-d]pyrimidin-2-yl)phenyl)propan-2-yl)oxy)ethyl)carbamate] | improved the rate of ear closure over the control | 2-3 mm | 5.5-6 mm | 68-75% | newly formed chondrocytes are more numerous and larger than in the control |  |  | 
O=c1[nH]c(-c2ccc(-c3ccc(Br)nc3)cc2)nc2c1CSCC2 [Compound 7, 2-(4-(6-bromopyridin-3-yl)phenyl)-3,5,7,8-tetrahydro-4H-thiopyrano [4,3-d]pyrimidin-4-one] |  |  |  |  |  | improved wound healing throughout the entire test | statistically significant improved burn wound healing rates | promoted regeneration of tissue (improved organized reticular collagen and rete ridge formation) and reduced scar formation
